Here are results for one compound from US4145337A, “Aminoethylglycine containing polypeptides” (Hoffmann-La Roche Inc., priority 1977, dated 1979).

Assay [1] concerns gastrointestinal bleeding from residual ulcers. The following applies: patient, 250 μg i.v. bolus then 250 μg per hour for 67 hours; cited from earlier work.
Assay [2] deals with duodenal ulcers produced by prolonged administration of pentagastrin or histamine. The following applies: cats, continuous i.v. infusion 0.62 to 5.0 μg/kg-hr; cited from earlier work.
Assay [3] has as its system gastric secretion. The following applies: chronic fistula dog, Torchiana et al. 1977; cited from earlier work.
Assay [4] deals with basal gastric secretion and gastrin release. The following applies: Bloom et al. 1974; cited from earlier work.
The test system of assay [5] is gastric mucus production. The assay is described as follows: Stimulation of mucoprotein production: gastric mucosal carbohydrates and total protein. The format is in vivo, rat. The following applies: 800 μg/kg i.p. The method, then:
Overnight fasted rats received saline solutions of either Compound M or Compound A at the antisecretory dose of 800μg/kg administered intraperitoneally. Control rats were given only vehicle. All animals were sacrificed by decapitation 1 hour after dosing. After opening the abdomen the stomach was removed and its contents were washed away with 10 ml of a 0.85% NaCl solution. The excised stomachs were cut open along the greater curvature and the exposed gastric mucosa was carefully scraped. The scrapings were homogenized in 5 ml of the 0.85% NaCl solution and subjected to chemical analysis. Total hexoses were determined by the anthrone reaction, which is based on the formation in concentrated sulfuric acid of furfural derivatives which react with anthrone to form a blue-green color; this reaction has the advantage of being applied directly to the glycoprotein with color formation occuring concurrently with the liberation of sugars (Methods in Enzymology, Vol. VIII, pp. 4-5 1966). Fucose in the unhydrolyzed mucoprotein was determined by the Dische-Shettes cysteine-sulfuric acid reaction for methyl pentoses. This method allows accurate determination of fucose even in the presence of large amounts of hexoses and peptide material (Methods in Eznymology, Vol. VIII, pp 11-13 , 1966).
Total protein was determined using the Lowry method.

Assay [6] relates to restraint-immersion induced gastric ulceration. The assay is described as follows: Mouse restraint-immersion test, antiulcerogenic activity. The format is in vivo. The method, then:
In both studies CD-1 male mice weighing between 18-25 g were used. The mice were fasted for 19 hours prior to the initiation of restraint-immersion which involved restraining animals in rubber hoses and immersion in water (21° C.) to the height of the xiphoid process. In the first study, just prior to the initiation of the restraint-immersion procedure, mice received, via the subcutaneous route, graded amounts (0.1 to 10 mg/kg b.w.) of somatostatin (Compound A), Compound F, or vehicle (5% acacia); this administration was repeated two hours later. In the second study, the compounds (Compound A, Compound L, or vehicle) were administered only once, just prior to the initiation of the restraint-immersion procedure. Following four hours of restraint-immersion the animals (both studies) were killed and their stomachs examined for ulceration. The degree of ulceration was determined by the amount of visible blood present in the stomach and was rated on a scale of 0 to 4, with 0 being no detectable blood and 4 being a massive amount of blood. All compounds were dispersed in 5% acacia and administered at a dosage volume of 0.2 ml per 20 grams of body weight. The antiulcerogenic ED50 values were calculated using percent protection as the response and a computer program ("ED50") based on the probit method of Finney (Finney, "Probit Analysis", Cambridge University Press, 1971). The comparative effectiveness (relative potency R. P.) of somatostatin and Compound F (first study) or somatostatin and Compound L (second study) was determined from the dose responses using an "ED50" computer program.

In assay [7] the test system is restraint ulcer formation. The following applies: cited from earlier work.
Assay [8] deals with peptic ulcer bleeding. The following applies: infusion in man, Rasche et al. 1976; cited from earlier work.
Where [9] appears, read: 1 hour after dosing, mucosal scrapings.

Take `C[C@H](N)C(=O)NCC(=O)N[C@H]1CSSC[C@@H](C(=O)O)NC(=O)[C@H](CO)NC(=O)[C@H]([C@@H](C)O)NC(=O)[C@H](Cc2ccccc2)NC(=O)[C@H]([C@@H](C)O)NC(=O)[C@H](CCCCN)NC(=O)[C@H](Cc2c[nH]c3ccccc23)NC(=O)[C@H](Cc2ccccc2)NC(=O)[C@H](Cc2ccccc2)NC(=O)[C@H](CC(N)=O)NC(=O)[C@H](CCCCN)NC1=O` [Compound A, somatostatin]: in assay [1], the effect on bleeding result is “immediate cessation of the bleeding after 1 hour” and the “endoscopy at the end of treatment period” value was “two ulcers in the process of healing”. For the same compound, in assay [2], the “prevention of duodenal ulcers” value is “effectively prevented the formation of duodenal ulcers”. For the same compound, the “duration of inhibitory effects on gastric secretion” value in assay [3] is “short duration”. The “effect on basal gastric secretion and gastrin release” value in assay [4] is “inhibits basal gastric secretion and gastrin release”. In assay [5] (setting [9]), the “Fucose, gastric mucosal concentration (mean)” value came to 46.2 μg/total sample; the “Hexose, gastric mucosal concentration (mean)” value was 235.3 μg/total sample; the “Total Protein, gastric mucosal concentration (mean)” value is 350.0 μg/total sample. Moreover, in assay [5] (1 hour after treatment), the “gastric mucosal carbohydrates versus control, in words” value is “did not appear to influence concentration of carbohydrates” and the “gastric mucosal total protein versus control, in words” value is “produced an increment of the total protein”. Moreover, the “prevention of restraint-immersion induced gastric ulceration, in words” value in assay [6] (first study, s.c. twice) was “effective in preventing restraint-immersion induced gastric ulceration”. In addition, the “antiulcerogenic ED50” value in assay [6] (first study: s.c. just prior to restraint-immersion, repeated two hours later, 4 h restraint-immersion) was 0.35 mg/kg. The compound also displayed an ED50 in assay [6] (second study: administered only once just prior to restraint-immersion, 4 h) of 6.70 mg/kg. Also, the “ulcers relative to untreated animals” value in assay [7] (100 μg linear protamine-zinc-somatostatin/rat s.c. before, 3 h and 6 h, after 9 hours of immobilization) was 1/5. Also, the “effect on restraint ulcer formation” value in assay [7] (subcutaneous administration in rats, Zierden et al. 1976) was “prophylactic effect on restraint ulcer formation”. The “effect on peptic ulcer bleeding” value in assay [8] is reported as “stop peptic ulcer bleeding”.

The term ED50 denotes the dose at which the effect has come halfway, by size or by number of responders. A lower ED50 goes with greater potency.
